Experimental data: patent EP0465913B1, “Diaminotrifluoromethylpyrimidine derivatives, process for their production and phospholipase A2 inhibitor containing them” (ISHIHARA SANGYO KAISHA, LTD., priority 1990, dated 1992)
Values joined by “and” are separate entries in the source; they are usually repeats but may differ in a detail not shown here. Equal values may be shown once.

Experiments:
Test in all cases: Effects against acute pancreatitis (Test Example 7, closed duodenal loop method, gross pathological examination)
Type in all cases: in vivo, Crj-CD male rats
Conditions in all cases: 40 mg per kg continuous intravenous injection, examination 3 hours after ventrotomy, individual rats
[1] = tested on: experimental acute pancreatitis model; design: key to Pancreatic edema Distribution: -: No significant lesions; ± ∼ +++: Focal-diffuse; ± ∼ +++: Focal-diffuse; ± ∼ +++: Focal-diffuse; ± ∼ +++: Focal-diffuse; key to Pancreatic hemorrhage Petechia Grade / Pancreatic edema Grade: -: No significant lesions; ±: Minimal; +: Light; ++: Moderate; +++: Marked
Protocol: (§1) Using Crj-CD male rats (for Compound No. 19, rats having a body weight of from 371 to 484 g were used, and for Compound No. 10, rats having a body weight of from 444 to 574 g were used), each test group consisted of 3 rats. An experimental acute pancreatitis model was prepared by a closed duodenal loop method under anesthesia with halothane (manufactured by Hoechst Japan) and nitrous oxide (manufactured by Sumitomo Seika K.K.) applied by means of a general inhalation anesthesia machine (Model EM-2 and halothane evaporator F-Model). Then, Compound No. 19 or Compound No. 10 was continuously intravenously injected into the tail vein in an amount of 50 mg per kg or 40 mg per kg, respectively, at a rate of 0.05 ml per minute by means of a pump (Technicon AA II Proportioning Pump III, manufactured by Technicon Instruments Corporation). No injection was made to a control group. Gross pathological examination was conducted upon expiration of 6 hours after the ventrotomy in the case of the test group to which Compound No. 19 was administered, or upon expiration of 3 hours after the ventrotomy in the case of the test group to which Compound No. 10 was administered. As a result, as shown in the following Table 12, the groups to which the compounds of the present invention were administered, show distinct usefulness for treating acute pancreatitis.

[2] = tested on: experimental acute pancreatitis model; design: key: -: No significant lesions; ± ∼ +++: Focal-diffuse; ± ∼ +++: Focal-diffuse; ± ∼ +++: Focal-diffuse; ± ∼ +++: Focal-diffuse
Protocol: as §1

[3] = tested on: experimental acute pancreatitis model; design: key: -: No significant lesions; ±: Minimal; +: Light; ++: Moderate; +++: Marked
Protocol: as §1

CS(=O)(=O)Nc1ncc(C(F)(F)F)cc1NC(=O)c1ccc(F)cc1 [Compound No. 10, N-(2-methylsulfonylamino-5-trifluoromethyl-3-pyridyl)-4-fluorobenzamide]
Pancreatic edema Distribution [1]: ± and + (2×) | Pancreatic edema Grade [1]: ± and + and †† | Pancreatic hemorrhage Petechia Grade [1]: ± and - and + | Pancreatic hemorrhage Petechia Distribution [2]: ± and + | Pancreatic hemorrhage Petechia Distribution [3]: -
